From ChEMBL document CHEMBL1201862, “PubChem BioAssay data set” (2004)
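Briefly, cells in 96-well plates were exposed to five compound concentrations for 48 h, and endpoints were estimated by linear interpolation. At the GI50, growth is halved.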 Activity calls are given as the source filed them. Rule as the data show it: active = GI50 up to about 1.1 µM and inactive = higher.

Assays:
Experiment in all cases: inhibition of tumour cell growth, NCI panel, 48 h
[1] = test system: Hs-578T
[2] = test system: XF498
[3] = test system: SNB-78
[4] = test system: HOP-18
[5] = test system: LXFL 529
[6] = test system: DLD-1
[7] = test system: KM-20L2
[8] = test system: DMS-273
[9] = test system: RXF 631

For `O=C1O[C@H](c2ccc3c(c2)OCO3)[C@H]2CO[C@@H](c3ccc4c(c3)OCO4)[C@@H]12`, which GI50 [1] is on record?
Its GI50 is > 100 µM (inactive).

How did the GI50 [1] turn out when `O=C1c2cc3c(cc2CC12Cc1ccc4c(c1C2=O)CCC4)CCC3` (configuration not stated) was run?
The GI50 was > 100 µM (inactive).

How did the GI50 [2] turn out when `CCOC(=O)/C(=C/c1ccco1)P(=O)(OCC)OCC` was run?
Its GI50 is > 100 µM (inactive).

What about the GI50 [3] of the same compound?
The GI50 was > 100 µM (inactive).

What about the GI50 [4] of the same compound?
Its GI50 is > 100 µM (inactive).

What about the GI50 [5] of the same compound?
Its GI50 is > 100 µM (inactive).

What about the GI50 [6] of the same compound?
The GI50 was > 100 µM (inactive).

How did the GI50 [1] turn out when `CCn1nc(C)c2c1C(=O)NCC(=O)N2` was run?
The GI50 was > 100 µM (inactive).

With `NC(CO)C(=O)NCC(=O)O` (configuration not stated) as the compound, how does the GI50 [1] read?
The GI50 was > 100 µM (inactive).

How did the GI50 [1] turn out when `CCc1nc(N)c2nc(-c3ccc(C#N)cc3)oc2n1` was run?
The GI50 was > 100 µM (inactive).

Which GI50 [1] does the source give for `O=C1C[C@@]23CCC4(CC2CCC[C@H]3O1)OCCO4` (some centres not stated) here?
Its GI50 is > 100 µM (inactive).

For `O=C(Nc1ccccc1)N1CC(CN2CCN(c3ccccc3)CC2)OC1=O` (configuration not stated), which GI50 [1] is on record?
Its GI50 is 67 µM (inactive).

How did the GI50 [1] turn out when `CCCCCCCCC/C=C1\CC(CO)(COC(=O)c2ccccc2)OC1=O` (configuration not stated) was run?
The GI50 was 17.3 µM (inactive).

With `COc1cc(C2C(Cl)C(=O)N2NC(=O)c2ccc(NC(C)=O)cc2)cc(Br)c1O` (configuration not stated) as the compound, how does the GI50 [4] read?
The GI50 was > 100 µM (inactive).

And the GI50 [5]?
Its GI50 is > 100 µM (inactive).

And the GI50 [6]?
Its GI50 is > 100 µM (inactive).

Which GI50 [1] does the source give for `Cc1ccccc1CN1CC2=C(CCN(Cc3ccccc3)C2=O)N2CCN=C12` here?
Its GI50 is 14.4 µM (inactive).

With `Cc1ccc(-c2n[nH]c(=O)n2N2C(=O)c3ccccc3C2=O)cc1` as the compound, how does the GI50 [1] read?
Its GI50 is > 100 µM (inactive).

With `COC(=O)C1=C(C(=O)OC)SC2(S1)C1=C(CCC1)SC(C(=O)OC)=C2C(=O)OC` as the compound, how does the GI50 [1] read?
Its GI50 is 18.5 µM (inactive).

For `CC(=O)c1ccc(NC(=O)/C(=N\NC(N)=O)C(C#N)CC(C)(C)C=O)cc1` (configuration not stated), which GI50 [2] is on record?
Its GI50 is > 100 µM (inactive).

And the GI50 [7]?
Its GI50 is > 100 µM (inactive).

And the GI50 [3]?
The GI50 was > 100 µM (inactive).

What about the GI50 [8] of the same compound?
The GI50 was > 100 µM (inactive).

What about the GI50 [5] of the same compound?
Its GI50 is > 100 µM (inactive).

What about the GI50 [6] of the same compound?
The GI50 was > 100 µM (inactive).

What does the source list for `Cc1nc2c(n1-c1ccccc1)C(=O)c1ccccc1C2=O`?
GI50 [3]: 27.5 µM (inactive); GI50 [8]: 39.4 µM (inactive); GI50 [6]: 48.5 µM (inactive)

For `CCOC(=O)C(O)(NC(C)=O)C(F)(F)F` (configuration not stated), which GI50 [1] is on record?
Its GI50 is > 100 µM (inactive).

With `CC(=O)c1ccc(OCC(O)CO)cc1` (configuration not stated) as the compound, how does the GI50 [7] read?
Its GI50 is > 100 µM (inactive).

And the GI50 [9]?
Its GI50 is > 100 µM (inactive).

And the GI50 [3]?
Its GI50 is > 100 µM (inactive).

What about the GI50 [4] of the same compound?
The GI50 was > 100 µM (inactive).

And the GI50 [8]?
Its GI50 is > 100 µM (inactive).

What about the GI50 [5] of the same compound?
The GI50 was 51.8 µM (inactive).

And the GI50 [6]?
Its GI50 is 45.8 µM (inactive).

With `COC(=O)C(C/C=C(\C)c1ccccc1)C(C)=O` (configuration not stated) as the compound, how does the GI50 [2] read?
Its GI50 is > 80.9 µM (inactive).

And the GI50 [7]?
Its GI50 is > 100 µM (inactive).

What about the GI50 [3] of the same compound?
Its GI50 is > 68.5 µM (inactive).

And the GI50 [4]?
The GI50 was > 100 µM (inactive).

And the GI50 [8]?
Its GI50 is > 83.9 µM (inactive).

What about the GI50 [6] of the same compound?
Its GI50 is 89.5 µM (inactive).

Which GI50 [1] does the source give for `CC(CC[C@@]1(C)C(=O)CCC2O[C@]21C)[C@H]1C[C@@H](c2ccoc2)OC1=O` (some centres not stated) here?
Its GI50 is 39.3 µM (inactive).

`CSC1=N/C(=C\c2ccc(C)cc2)C(=O)N1CN1CCCCC1` was tested. Which GI50 [1] did it give?
Its GI50 is 56.5 µM (inactive).

For `CC1C=CN(N(C)C)C2=C1C(=O)c1cnccc1C2=O` (configuration not stated), which GI50 [1] is on record?
Its GI50 is 0.693 µM (active).

For `O=C(O)CC(O)(C(=O)O)C(O)C(=O)O` (configuration not stated), which GI50 [1] is on record?
The GI50 was 119 µM (inactive).

With `Cc1nc2cc(/N=N/c3c(C)noc3C)ccc2[nH]1` as the compound, how does the GI50 [1] read?
Its GI50 is 16.5 µM (inactive).
